Experimental data from patent US11202815B2, “Composition for preventing, treating or improving prostate disease containing acanthopanax sessiliflorus, phragmites rhizome, and pinus densiflora extracts as active ingredient” (GENOME & MEDICINE CO., LTD., priority 2017, dated 2021).

Test system: 5α-reductase type 2 (SRD5A2)
Test: Western blotting of 5α-reductase type 2 (SRD5A2) protein expression level
Format: cell-based
Conditions: 0.40 mM, cultured for 24 hours, FIG. 8
Experimental: 5α-reductase had total three types of subtypes (types 1, 2 and 3), in which types 1 and 3 have been studied for diseases such as male hair loss or acne and type 2 was directly associated with benign prostatic hyperplasia.
As a result, in Example 6, a 5α-reductase type 2 (SRD5A2) protein expression level was analyzed by Western blotting to confirm 5α-reductase inhibitory activity.
Specifically, the cells were divided at a concentration of 2.0×10^5 cell/well and treated with 100 μg/ml of the Acanthopanax sessiliflorus extract, 600 μg/ml of the Pinus densiflora extract, 600 μg/ml of the Phragmites rhizome extract, or 350 μg/ml of the complex extract (Extract 4) obtained by mixing the extracts at 4:2:1 in a PRMI1640 medium containing 1% fetal bovine serum (FBS), and then cultured for 24 hours.
Finasteride, which has been sold as a 5α-reductase inhibitor on the market, was used as a positive control.
Then, the cultured cells were lysed, filtered with a 0.45 μm mesh, and subjected to Western blotting according to a procedure shown in FIG. 7.
Specifically, a primary antibody (Anti-SRD5A2, Sigma) was diluted to 1:200 and treated, and a secondary antibody (m-IgGP-HRP, Santa Cruz) was diluted to 1:3000 and treated, and then the expression levels of 5α-reductase type 2 according to treatment of each extract and each compound were confirmed.

Compound | expression levels of 5α-reductase type 2
COc1cc([C@@H]2OC[C@@H]3[C@H]2CO[C@H]3c2cc(OC)c(O[C@@H]3O[C@H](CO)[C@@H](O)[C@H](O)[C@H]3O)c(OC)c2)cc(OC)c1O[C@@H]1O[C@H](CO)[C@@H](O)[C@H](O)[C@H]1O [acanthoside D] | significantly reduced
O=C(O)/C=C/c1ccc(O)cc1 [p-coumaric acid] | significantly reduced
